Test results reported in patent publication US6500466B2, “Chlorhexidine formulations, new chlorhexidine salts, solutions containing these and their use” (Degussa AG, priority 1998, dated 2002).
Values belong to the compound of their own block, whether it stands above or below them.

Columns and labels:
[1] = Storage trials: production of p-chloroaniline in aqueous 20 wt. % solutions and in powdered mixtures (FIG. 1, FIG. 2); format: physicochemical; conditions: aqueous solution stored at constant 40° C.
Excerpt: The composition and appearance of gluconate solutions are subject to the requirements of the European Pharmacopoeia and the American Pharmacopoeia. One of the purity requirements is a concentration of p-chloroaniline limited to 500 ppm. In a reaction which is the reverse of forming the chlorhexidine base from hexamethylenebicyanoguanidine and p-chloroaniline, p-chloroaniline can be reversibly eliminated from these solutions on dissolving the base in D(+) glucono-6-lactone, the internal ester of D(+)-gluconic acid, wherein the solutions discolor and become increasingly yellow to brown. Decomposition of chlorhexidine solutions depends on the pH of the solution and in particular on the storage temperature. Tests show (FIG. 1), that the permissible p-chloroaniline values are exceeded after about one month when stored at a constant temperature of 40° C. Solutions of CHD-gluconate which are stable over the long-term have not hitherto been disclosed. The use of these solutions in regions with a tropical climate is therefore a problem which has not hitherto been resolved satisfactorily. Therefore, there is a need for chlorhexidine salt solutions which tend to decompose to only a small extent when used under extreme climatic conditions, in particular at high temperatures.
The problem of long-term p-chloroaniline production cannot be solved by the invention of new anions. […]

[2] = background statement; cited from earlier work
[3] = Light sensitivity and stability compared with the gluconate; format: physicochemical

time after which permissible p-chloroaniline values (500 ppm) are exceeded [1]: about one
Compound: N=C(NCCCCCCNC(=N)NC(=N)Nc1ccc(Cl)cc1)NC(=N)Nc1ccc(Cl)cc1.O=C(O)[C@H](O)[C@@H](O)[C@H](O)[C@H](O)CO.O=C(O)[C@H](O)[C@@H](O)[C@H](O)[C@H](O)CO [Chlorhexidine digluconate]

Compound: [H]/N=C(\N/C(=N/[H])NCCCCCCNC(=N)NC(=N)Nc1ccc(Cl)cc1)Nc1ccc(Cl)cc1 [Chlorhexidine, 1,1′-hexamethylene-bis-[5,4-chlorophenyl]-biguanide]
solubility in water [2]: very low solubility in water

light sensitivity relative to the gluconate [3]: more light sensitive
stability relative to the gluconate [3]: more unstable than the gluconate
Compound: chlorhexidine ascorbate
